Experimental data reported in PMC9120478 (Nature Communications, 2022).
Residue numbers refer to the chain shown, from its start. “And” between values parts separate entries of the source, which are not always exact repeats. Equal values may be shown once. Read-outs that look alike come from different tables or passages of the source.

Columns and labels:
wild-type TRPV3 = conditions: cited from earlier work; for F340/F380 change normalized to approximated maximal value at saturating 2-APB: WT, published before
TRPV3-Y594A = target: T1, TRPV3-Y594A (Mus musculus, UniProt Q8K424, Y594A); test: Fura-2 ratiometric Ca2+ measurement, control application of 2-APB; assay type: cell-based
T1 construct: expressed in transfected cells; host or cells: HEK 293 S GnTI- cells (baculovirus transduction)
T1 sequence (Q8K424 1-791 Y594A): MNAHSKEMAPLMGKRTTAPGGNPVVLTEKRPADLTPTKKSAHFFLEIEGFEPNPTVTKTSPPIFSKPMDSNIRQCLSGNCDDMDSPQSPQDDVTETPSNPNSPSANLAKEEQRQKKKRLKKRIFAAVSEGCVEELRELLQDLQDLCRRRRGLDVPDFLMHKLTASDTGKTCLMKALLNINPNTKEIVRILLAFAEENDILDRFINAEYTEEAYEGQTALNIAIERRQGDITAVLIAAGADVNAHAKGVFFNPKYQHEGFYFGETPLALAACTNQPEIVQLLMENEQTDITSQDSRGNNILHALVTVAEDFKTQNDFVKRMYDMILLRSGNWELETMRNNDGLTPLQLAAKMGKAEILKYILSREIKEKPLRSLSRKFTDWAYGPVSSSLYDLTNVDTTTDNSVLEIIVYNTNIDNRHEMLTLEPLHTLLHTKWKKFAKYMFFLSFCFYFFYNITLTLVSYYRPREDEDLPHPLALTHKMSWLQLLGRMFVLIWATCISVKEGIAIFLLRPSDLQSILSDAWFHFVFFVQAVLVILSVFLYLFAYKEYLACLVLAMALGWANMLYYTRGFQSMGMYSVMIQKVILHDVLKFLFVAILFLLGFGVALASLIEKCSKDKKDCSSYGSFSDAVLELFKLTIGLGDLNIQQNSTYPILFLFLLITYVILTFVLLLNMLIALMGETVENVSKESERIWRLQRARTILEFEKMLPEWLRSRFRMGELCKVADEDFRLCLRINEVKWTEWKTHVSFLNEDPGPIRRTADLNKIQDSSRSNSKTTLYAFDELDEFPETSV
From the text: The portal site in TRPV3 has not been previously shown to bind small-molecule inhibitors. This site, however, was originally proposed to be an entry pathway for local anesthetics to the pore of sodium channels[47]–[49] and found to accommodate cannabidiol in TRPV2, a closely-related representative of the vanilloid subfamily of TRP channels. […] We concluded that the Y594A mutation altered gating properties of TRPV3 and excluded this mutant from further analysis.
GFP-free C-terminally strep-tagged wild-type TRPV3, TRPV3-Y564A, TRPV3-Y594A, TRPV3-F633A, TRPV3-I663W, and TRPV3-F666A were expressed in HEK 293 S GnTI^− cells as previously described[41],[42],[53]. In short, 48 h after transduction, 1-ml aliquots of cell suspension were collected by centrifugation at 550 g for 5 min using an Eppendorf 5424 centrifuge. […] The washed cell pellets were kept on ice in the dark before taking an aliquot for fluorescence measurements. […] Fluorescence measurements were conducted using a QuantaMaster 40 spectrofluorometer (Photon Technology International) at room temperature in a quartz cuvette under constant stirring. […] Changes in intracellular Ca^2+ were measured by taking the ratio of fluorescence emitted at 510 nm at the excitation wavelength of 340 nm and 380 nm. […]

F666A mutant TRPV3 = target: T2, F666A mutant TRPV3 (Mus musculus, UniProt Q8K424, F666A); test: Fura-2 ratiometric Ca2+ measurement, activation by 2-APB; assay type: cell-based; conditions: for F340/F380 change normalized to approximated maximal value at saturating 2-APB: F666A
T2 construct: expressed in transfected cells; host or cells: HEK 293 S GnTI- cells (baculovirus transduction)
T2 sequence (Q8K424 1-791 F666A): T1 sequence (Q8K424 1-791 Y594A) with A594Y, F666A
Description: GFP-free C-terminally strep-tagged wild-type TRPV3, TRPV3-Y564A, TRPV3-Y594A, TRPV3-F633A, TRPV3-I663W, and TRPV3-F666A were expressed in HEK 293 S GnTI^− cells as previously described[41],[42],[53]. In short, 48 h after transduction, 1-ml aliquots of cell suspension were collected by centrifugation at 550 g for 5 min using an Eppendorf 5424 centrifuge. The cells were resuspended in the pre-warmed modified HEPES-buffered saline (HBS) containing 118 mM NaCl, 4.8 mM KCl, 1 mM MgCl2, 5 mM D-glucose, and 10 mM HEPES pH 7.4 and 5 μg/ml Fura-2 AM (Thermo Fisher Scientific) and incubated for 45 min at 37 °C. The Fura-2-loaded cells were then centrifuged for 5 min at 550 g, resuspended in the pre-warmed, modified HBS and incubated again for 30 min at 37 °C in the dark. The cells were subsequently pelleted and washed twice in the modified HBS. The washed cell pellets were kept on ice in the dark before taking an aliquot for fluorescence measurements. […] We used the lower CaCl2 concentration than before[42],[28] (2.5 mM) to minimize non-specific effects, which often appeared as a drift in the Fura-2 signal at high Ca^2+ concentration, presumably due to cell death as a result of calcium overload. Fluorescence measurements were conducted using a QuantaMaster 40 spectrofluorometer (Photon Technology International) at room temperature in a quartz cuvette under constant stirring. After 60 s since the beginning, the recording was paused and 2-APB was added. After the addition of 2-APB, the recording was continued for the additional 140 s. Changes in intracellular Ca^2+ were measured by taking the ratio of fluorescence emitted at 510 nm at the excitation wavelength of 340 nm and 380 nm. […] The data were processed using Origin 9.0 (OriginLab) software.

**Q.** For `NCCOB(c1ccccc1)c1ccccc1` [2-APB], which “F340/F380 change normalized to approximated maximal value at saturating 2-APB” value (shortened to “F340/F380 change normalized”) (wild-type TRPV3; 2-APB Conc 3.2, single experiments) is on record?
**A.** Its value is 0.1142 and 0.08511 and 0.06324 and 0.1042.

**Q.** And the “F340/F380 change normalized” value (wild-type TRPV3; 2-APB Conc 102.4, single experiments)?
**A.** The value was 0.8797 and 0.5873 and 0.8594 and 0.9531.

**Q.** What about the “F340/F380 change normalized” value (wild-type TRPV3; 2-APB Conc 204.8, single experiments) of the same compound?
**A.** The value was 0.97 and 1 and 0.6572 and 1.041.

**Q.** What about the “nHill of activation curve, wild-type TRPV3” value (wild-type TRPV3; n = 4, published before) of the same compound?
**A.** Its value is 1.19 ± 0.09.

**Q.** And the EC50 (wild-type TRPV3; n = 4, published before, read-out: EC50, 2-APB-induced activation of wild-type TRPV3)?
**A.** Its EC50 is 27.4 ± 4.5 µM.

**Q.** What about the “change in F340/F380 on control application of 2-APB, Y594A” value (TRPV3-Y594A) of the same compound?
**A.** The value was “barely detectable changes”.

**Q.** And the “F340/F380 change normalized” value (F666A mutant TRPV3; 2-APB Conc 0.1, single experiments)?
**A.** The value was 0.01591 and 0.01218 and 0.01441.

**Q.** What about the “F340/F380 change normalized” value (F666A mutant TRPV3; 2-APB Conc 0.3, single experiments) of the same compound?
**A.** Its value is 0.0415 and 0.03827 and 0.03455.

**Q.** And the “F340/F380 change normalized” value (F666A mutant TRPV3; 2-APB Conc 1, single experiments)?
**A.** The value was 0.08549 and 0.07903 and 0.08027.

**Q.** What about the “F340/F380 change normalized” value (F666A mutant TRPV3; 2-APB Conc 3, single experiments) of the same compound?
**A.** Its value is 0.1735 and 0.1693 and 0.1578.

**Q.** And the “F340/F380 change normalized” value (F666A mutant TRPV3; 2-APB Conc 10, single experiments)?
**A.** Its value is 0.3611 and 0.3532 and 0.3454.

**Q.** And the “F340/F380 change normalized” value (F666A mutant TRPV3; 2-APB Conc 30, single experiments)?
**A.** The value was 0.6328 and 0.6126 and 0.5903.

**Q.** And the “F340/F380 change normalized” value (F666A mutant TRPV3; 2-APB Conc 100, single experiments)?
**A.** Its value is 0.7746 and 0.7881 and 0.7839.

**Q.** What about the “F340/F380 change normalized” value (F666A mutant TRPV3; 2-APB Conc 300, single experiments) of the same compound?
**A.** Its value is 0.7811 and 0.756 and 0.8326.

**Q.** And the “nHill of activation curve, F666A” value (F666A mutant TRPV3; n = 3)?
**A.** The value was 0.80 ± 0.02.

**Q.** And the EC50 (F666A mutant TRPV3; n = 3, read-out: EC50, 2-APB-induced activation of F666A)?
**A.** Its EC50 is 20.7 ± 0.9 µM.
